Measurements reported in ChEMBL document CHEMBL1770085, “Homodimeric bis-quaternary heterocyclic ammonium salts as potent acetyl- and butyrylcholinesterase inhibitors: a systematic investigation of the influence of linker and cationic heads over affinity and selectivity” (J Med Chem, 2011).

Experiments:
Butyrylcholinesterase = Butyrylcholinesterase (Equus caballus, UniProt Q9N1N9)
Description: Inhibition of equine BChE after 20 mins using butyrylthiocholine iodide as a substrate by Ellman's assay

[1] = Selectivity index, ratio of IC50 for equine BChE to IC50 for bovine AChE
Cholinesterase = Cholinesterase (Homo sapiens, UniProt P06276)
Description: Inhibition of human BChE after 20 mins using butyrylthiocholine iodide as a substrate by Ellman's assay

Acetylcholinesterase [2] = molecular target: T1, Acetylcholinesterase (Bos taurus, UniProt P23795)
T1 sequence (P23795 whole entry): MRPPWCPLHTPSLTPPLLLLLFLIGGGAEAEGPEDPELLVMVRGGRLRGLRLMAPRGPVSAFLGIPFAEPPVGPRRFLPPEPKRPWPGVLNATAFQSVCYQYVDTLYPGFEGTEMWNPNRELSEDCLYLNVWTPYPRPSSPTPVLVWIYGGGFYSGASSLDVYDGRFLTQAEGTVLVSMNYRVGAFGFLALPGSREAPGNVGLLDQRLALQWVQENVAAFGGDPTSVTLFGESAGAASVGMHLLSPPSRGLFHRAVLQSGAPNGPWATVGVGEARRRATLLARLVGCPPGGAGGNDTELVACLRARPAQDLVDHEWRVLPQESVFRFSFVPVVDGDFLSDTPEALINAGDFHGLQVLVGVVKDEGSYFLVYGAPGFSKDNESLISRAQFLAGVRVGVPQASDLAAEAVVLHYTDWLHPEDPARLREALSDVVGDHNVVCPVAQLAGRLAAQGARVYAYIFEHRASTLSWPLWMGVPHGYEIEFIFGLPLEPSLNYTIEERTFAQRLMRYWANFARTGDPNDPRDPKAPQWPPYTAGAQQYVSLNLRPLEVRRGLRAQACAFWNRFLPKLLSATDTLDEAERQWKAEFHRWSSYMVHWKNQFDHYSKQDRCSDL
Description: Inhibition of bovine AChE after 20 mins using acetylthiocholine iodide as a substrate by Ellman's assay

Acetylcholinesterase [3] = molecular target: Acetylcholinesterase (Homo sapiens, UniProt P22303)
Description: Inhibition of human recombinant AChE after 20 mins using acetylthiocholine iodide as a substrate by Ellman's assay

[4] = molecular target: T2, Acetylcholinesterase (Bos taurus) (UniProt P23795); assay: Inhibition of bovine AChE at 10 uM after 20 mins using acetylthiocholine iodide as a substrate by Ellman's assay
T2 sequence (whole entry): T1 sequence (P23795 whole entry)

Sequence of Cholinesterase (P06276 whole entry): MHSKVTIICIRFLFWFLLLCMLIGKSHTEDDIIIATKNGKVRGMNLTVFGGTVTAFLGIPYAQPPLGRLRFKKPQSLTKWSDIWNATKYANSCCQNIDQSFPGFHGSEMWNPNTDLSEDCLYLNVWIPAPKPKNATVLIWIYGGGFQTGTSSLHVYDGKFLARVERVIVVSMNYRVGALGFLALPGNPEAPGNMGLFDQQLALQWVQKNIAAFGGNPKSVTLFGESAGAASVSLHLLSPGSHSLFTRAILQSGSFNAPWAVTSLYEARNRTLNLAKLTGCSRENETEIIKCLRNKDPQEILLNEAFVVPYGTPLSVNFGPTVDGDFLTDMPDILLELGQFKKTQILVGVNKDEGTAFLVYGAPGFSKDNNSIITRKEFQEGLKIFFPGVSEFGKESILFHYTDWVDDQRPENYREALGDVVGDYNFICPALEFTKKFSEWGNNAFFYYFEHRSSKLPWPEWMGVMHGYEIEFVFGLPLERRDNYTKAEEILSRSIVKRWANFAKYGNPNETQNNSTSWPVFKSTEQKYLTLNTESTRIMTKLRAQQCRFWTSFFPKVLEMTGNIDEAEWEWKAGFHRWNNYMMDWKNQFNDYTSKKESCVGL
Sequence of Butyrylcholinesterase (Q9N1N9 whole entry): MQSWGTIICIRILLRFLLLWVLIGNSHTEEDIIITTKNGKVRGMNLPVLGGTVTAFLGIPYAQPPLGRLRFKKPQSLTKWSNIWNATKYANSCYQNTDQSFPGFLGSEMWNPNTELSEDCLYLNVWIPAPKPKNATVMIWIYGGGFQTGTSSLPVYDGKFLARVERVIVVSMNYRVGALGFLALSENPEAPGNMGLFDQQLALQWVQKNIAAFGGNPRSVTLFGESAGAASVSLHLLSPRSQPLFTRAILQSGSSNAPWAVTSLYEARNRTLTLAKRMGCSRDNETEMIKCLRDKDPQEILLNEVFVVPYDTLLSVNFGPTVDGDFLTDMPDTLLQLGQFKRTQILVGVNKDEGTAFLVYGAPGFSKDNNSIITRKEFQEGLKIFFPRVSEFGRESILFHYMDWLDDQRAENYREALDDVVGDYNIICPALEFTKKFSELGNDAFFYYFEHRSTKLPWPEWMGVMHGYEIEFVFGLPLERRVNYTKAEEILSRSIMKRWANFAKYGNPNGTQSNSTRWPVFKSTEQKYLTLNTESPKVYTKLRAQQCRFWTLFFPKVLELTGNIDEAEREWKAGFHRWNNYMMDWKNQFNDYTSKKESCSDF
Sequence of Acetylcholinesterase (Homo sapiens, UniProt P22303) (P22303 whole entry): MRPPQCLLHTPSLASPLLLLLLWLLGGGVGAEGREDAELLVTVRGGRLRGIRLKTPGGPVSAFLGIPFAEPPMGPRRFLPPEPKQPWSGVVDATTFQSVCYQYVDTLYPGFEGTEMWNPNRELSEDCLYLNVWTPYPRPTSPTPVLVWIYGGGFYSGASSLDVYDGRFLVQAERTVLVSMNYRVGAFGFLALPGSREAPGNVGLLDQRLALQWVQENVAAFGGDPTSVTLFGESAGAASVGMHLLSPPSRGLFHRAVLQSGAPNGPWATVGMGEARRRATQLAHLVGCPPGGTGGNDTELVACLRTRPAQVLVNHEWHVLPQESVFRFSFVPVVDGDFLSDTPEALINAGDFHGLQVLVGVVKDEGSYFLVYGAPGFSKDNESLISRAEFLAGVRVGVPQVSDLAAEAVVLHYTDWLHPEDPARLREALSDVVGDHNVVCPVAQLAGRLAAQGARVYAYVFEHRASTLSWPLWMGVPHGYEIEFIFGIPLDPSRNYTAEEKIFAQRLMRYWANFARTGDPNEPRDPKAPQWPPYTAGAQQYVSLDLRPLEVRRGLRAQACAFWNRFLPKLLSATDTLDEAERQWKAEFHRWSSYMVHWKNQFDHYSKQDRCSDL

Compound | IC50 (Butyrylcholinesterase) [nM] | Ratio IC50 [1] | IC50 (Cholinesterase) [nM] | IC50 (Acetylcholinesterase [2]) [nM] | IC50 (Acetylcholinesterase [3]) [nM] | inhibition [4] [%]
c1cc(C[n+]2ccc(N3CCCCC3)cc2)ccc1C[n+]1ccc(N2CCCCC2)cc1 | 682 | 9.5 | 610 | 72 | 75 | 
c1cc(C[n+]2ccc(NC3CCCCC3)cc2)ccc1CCCCc1ccc(C[n+]2ccc(NC3CCCCC3)cc2)cc1 | 206 | 2.1 |  | 100 |  | 
CN(c1ccccc1)c1cc[n+](Cc2cccc(C[n+]3ccc(N(C)c4ccccc4)cc3)c2)cc1 | 910 | 0.79 |  | 1150 |  | 
CN(C)c1cc[n+](Cc2ccc(C[n+]3ccc(N(C)C)cc3)cc2)cc1 |  | 7.6 |  | 1310 |  | 
Nc1cc[n+](Cc2ccc(CCc3ccc(C[n+]4ccc(N)c5ccccc54)cc3)cc2)c2ccccc12 | 620 | 0.92 |  | 672 |  | 
CN(C)c1cc[n+](Cc2cc(C[n+]3ccc(N(C)C)cc3)cc(C[n+]3ccc(N(C)C)cc3)c2)cc1 |  | 3.6 |  | 2750 |  | 
CN(c1cc[n+](Cc2cc(C[n+]3ccc(N(C)c4cc(Cl)cc(Cl)c4)cc3)cc(C[n+]3ccc(N(C)c4cc(Cl)cc(Cl)c4)cc3)c2)cc1)c1cc(Cl)cc(Cl)c1 | 679 | 0.38 |  | 1770 |  | 
c1cc(C[N+]23CCC(CC2)CC3)cc(-c2cccc(C[N+]34CCC(CC3)CC4)c2)c1 | 89 | 0.081 | 36 | 1100 | 620 | 
CN(c1cc[n+](Cc2ccc(C[n+]3ccc(N(C)c4cc(Cl)cc(Cl)c4)cc3)cc2)cc1)c1cc(Cl)cc(Cl)c1 | 1600 | 0.31 |  | 5200 |  | 
c1ccc(-c2cc[n+](Cc3cccc(-c4cccc(C[n+]5ccc(-c6ccccc6)cc5)c4)c3)cc2)cc1 | 797 | 1.4 |  | 553 |  | 
c1ccc(C[n+]2ccc(N3CCCC3)cc2)cc1 |  |  |  | 5530 |  | 
Cc1c2c(C)c3c(C)c1C[n+]1ccc(cc1)NCc1cc(cc(c1)CNc1cc[n+](cc1)C3)CNc1cc[n+](cc1)C2 | 516 | 0.14 |  | 3680 |  | 
c1cc(-c2ccc(C[n+]3ccc(N4CCCC4)cc3)cc2)ccc1C[n+]1ccc(N2CCCC2)cc1 | 1270 | 14 |  | 90 |  | 
CN(C)c1cc[n+](C[C@@H]2C[C@H]2C[n+]2ccc(N(C)C)cc2)cc1 (relative stereo) |  |  |  | 8780 |  | 
c1cc(C[n+]2ccc(N3CCCCC3)cc2)ccc1CCc1ccc(C[n+]2ccc(N3CCCCC3)cc2)cc1 | 130 | 1.6 |  | 79 |  | 
CN(C)c1cc[n+](Cc2ccc(CCCCc3ccc(C[n+]4ccc(N(C)C)cc4)cc3)cc2)cc1 | 372 | 1.5 |  | 252 |  | 
COc1cc2c(cc1OC)CN(c1cc[n+](Cc3cccc(-c4cccc(C[n+]5ccc(N6CCc7cc(OC)c(OC)cc7C6)cc5)c4)c3)cc1)CC2 | 1170 | 2.3 |  | 519 |  | 
Cc1ccc(C[n+]2ccc(N3CCCC3)cc2)cc1 |  |  |  |  |  | 52
Cc1ccc(C[n+]2ccc(N)c3ccccc32)cc1 |  |  |  |  |  | 34
c1cc(C[n+]2ccc(N3CCCC3)cc2)ccc1CCCCc1ccc(C[n+]2ccc(N3CCCC3)cc2)cc1 | 671 | 6.5 |  | 104 |  | 
CN(c1ccc(Cl)cc1)c1cc[n+](Cc2ccc(-c3ccc(C[n+]4ccc(N(C)c5ccc(Cl)cc5)cc4)cc3)cc2)cc1 | 683 | 0.22 |  | 3070 |  | 
c1cc(C[n+]2ccc(N3CCCCC3)cc2)cc(-c2cccc(C[n+]3ccc(N4CCCCC4)cc3)c2)c1 | 179 | 6.9 | 330 | 26 | 60 | 
c1cc(C[n+]2ccc(N3CCOCC3)cc2)ccc1CCc1ccc(C[n+]2ccc(N3CCOCC3)cc2)cc1 | 4480 | 1.7 |  | 2670 |  | 
c1ccc2c(c1)CCN(c1cc[n+](Cc3ccc(C[n+]4ccc(N5CCc6ccccc6C5)cc4)cc3)cc1)C2 | 327 | 2.6 |  | 126 |  | 
c1cc(C[n+]2ccc(N3CCc4ccccc4C3)cc2)cc(C[n+]2ccc(N3CCc4ccccc4C3)cc2)c1 | 190 | 0.68 |  | 281 |  | 
c1cc(C[n+]2ccc(N3CCCCCC3)cc2)ccc1CCCc1ccc(C[n+]2ccc(N3CCCCCC3)cc2)cc1 | 163 | 0.81 |  | 202 |  | 

Compound | IC50 (Butyrylcholinesterase) [nM] | Ratio IC50 [1] | IC50 (Cholinesterase) [nM] | IC50 (Acetylcholinesterase [2]) [nM] | IC50 (Acetylcholinesterase [3]) [nM] | inhibition [4] [%]
c1cc(C[n+]2ccc(N3CCCCC3)cc2)ccc1CCCc1ccc(C[n+]2ccc(N3CCCCC3)cc2)cc1 | 149 | 0.91 |  | 163 |  | 
COc1cc2c(cc1OC)CN(c1cc[n+](Cc3ccc(-c4ccc(C[n+]5ccc(N6CCc7cc(OC)c(OC)cc7C6)cc5)cc4)cc3)cc1)CC2 | 1530 | 16 |  | 94 |  | 
C(=C\c1ccc(C[n+]2ccc(N3CCCCC3)cc2)cc1)/c1ccc(C[n+]2ccc(N3CCCCC3)cc2)cc1 | 247 | 0.42 |  | 582 |  | 
c1cc(-c2ccc(C[n+]3ccc(N4CCCCC4)cc3)cc2)ccc1C[n+]1ccc(N2CCCCC2)cc1 | 430 | 2.7 |  | 160 |  | 
OC1C[N+]2(Cc3ccc(/C=C/c4ccc(C[N+]56CCC(CC5)C(O)C6)cc4)cc3)CCC1CC2 (centres undefined) | 5340 | 38 |  | 141 |  | 
c1cc(C[n+]2ccc(N3CCCCC3)cc2)ccc1Cc1ccc(C[n+]2ccc(N3CCCCC3)cc2)cc1 | 62 | 0.75 |  | 83 |  | 
CN(C)c1cc[n+](Cc2cccc(C[n+]3ccc(N(C)C)cc3)c2)cc1 | 7560 | 19 |  | 390 |  | 
c1cc2cc(c1)C[n+]1ccc(cc1)NCc1ccc(cc1)CNc1cc[n+](cc1)C2 | 850 | 0.22 |  | 3900 |  | 
CN(C)c1cc[n+](Cc2ccc(CCc3ccc(C[n+]4ccc(N(C)C)cc4)cc3)cc2)cc1 | 1360 | 2.2 |  | 628 |  | 
CN(c1ccc(Cl)cc1)c1cc[n+](Cc2cccc(-c3cccc(C[n+]4ccc(N(C)c5ccc(Cl)cc5)cc4)c3)c2)cc1 | 496 | 0.28 |  | 1780 |  | 
Cc1c[n+](Cc2cccc(-c3cccc(C[n+]4cc(C)c(N)c5ccccc54)c3)c2)c2ccccc2c1N | 59 | 0.12 |  | 497 |  | 
c1cc(C[n+]2ccc(N3CCCC3)cc2)ccc1CCc1ccc(C[n+]2ccc(N3CCCC3)cc2)cc1 | 735 | 1.9 |  | 385 |  | 
c1cc(C[n+]2ccc(N3CCCC3)cc2)cc(-c2cccc(C[n+]3ccc(N4CCCC4)cc3)c2)c1 | 518 | 13 |  | 39 |  | 
OC1C[N+]2(Cc3ccc(CCc4ccc(C[N+]56CCC(CC5)C(O)C6)cc4)cc3)CCC1CC2 (centres undefined) | 2090 | 22 |  | 97 |  | 
c1ccc2c(c1)CCN(c1cc[n+](Cc3ccc(-c4ccc(C[n+]5ccc(N6CCc7ccccc7C6)cc5)cc4)cc3)cc1)C2 | 318 | 0.92 |  | 346 |  | 
COc1cc2c(cc1OC)CN(c1cc[n+](Cc3ccc(C[n+]4ccc(N5CCc6cc(OC)c(OC)cc6C5)cc4)cc3)cc1)CC2 | 1370 | 0.7 |  | 1950 |  | 
c1cc(C[n+]2ccc(C3CCCCC3)cc2)cc(-c2cccc(C[n+]3ccc(C4CCCCC4)cc3)c2)c1 | 1090 | 8.2 |  | 134 |  | 
c1cc(C[n+]2ccc(N3CCCC3)cc2)ccc1C[n+]1ccc(N2CCCC2)cc1 | 1300 | 3.9 |  | 336 |  | 
OC1C[N+]2(Cc3cccc(-c4cccc(C[N+]56CCC(CC5)C(O)C6)c4)c3)CCC1CC2 (centres undefined) | 1150 | 0.11 |  |  |  | 55.8
c1cc(C[n+]2ccc(N3CCCC3)cc2)ccc1Cc1ccc(C[n+]2ccc(N3CCCC3)cc2)cc1 | 576 | 3.1 |  | 183 |  | 
CN(c1cc[n+](Cc2ccc(-c3ccc(C[n+]4ccc(N(C)c5cc(Cl)cc(Cl)c5)cc4)cc3)cc2)cc1)c1cc(Cl)cc(Cl)c1 | 550 | 0.19 |  | 2870 |  | 
c1cc(C[n+]2ccc(N3CCCCCC3)cc2)ccc1CCc1ccc(C[n+]2ccc(N3CCCCCC3)cc2)cc1 | 274 | 3.2 |  | 86 |  | 
COc1cc2c(cc1OC)CN(c1cc[n+](Cc3cccc(C[n+]4ccc(N5CCc6cc(OC)c(OC)cc6C5)cc4)c3)cc1)CC2 | 890 | 0.42 |  | 2100 |  | 
c1cc(C[n+]2ccc(N3CCCCC3)cc2)cc(C[n+]2ccc(N3CCCCC3)cc2)c1 | 335 | 2.9 |  | 114 |  | 
c1cc(C[n+]2ccc(N3CCCC3)cc2)ccc1CCCc1ccc(C[n+]2ccc(N3CCCC3)cc2)cc1 | 292 | 3.6 |  | 81 |  | 
